In PMC8879702, “Discovery of Small Molecule Activators of Chemokine Receptor CXCR4 That Improve Diabetic Wound Healing” (International Journal of Molecular Sciences, 2022):

How the values were obtained:
CXCR4 receptor = CXCR4 receptor (Homo sapiens, UniProt P61073); test: cAMP signaling assay, forskolin-induced, PathHunter CHO-K1 CXCR4 cells; type: cell-based; details: CHO-K1 CXCR4 overexpressed cells
Protocol: The CXCR4 receptor is a G-protein coupled receptor (GPCR) coupled to the Gi class, whose primary role is inhibition of adenylate cyclase. We tested the ability of UCUF-728 to induce a Gi-mediated cAMP-inhibitory cellular response. […] (Figure 2B).
Forskolin at final concentration of 0.5 mM was added to all wells using the TECAN dispenser. […] of PathHunter CHO-K1 CXCR4 cells (DiscoverX, Fremont, CA, USA) were added to compounds at 3000 cells/well, centrifuged at 1000 rpm for 30 s and incubated for 30 min at room temperature. DMSO (Sigma Aldrich, St. Louis, MO, USA) was normalized to 0.5%. […] of 4X Eu-cAMP tracer working solution were added to all wells, followed by addition of 5 μL of 4X Ulight-anti-cAMP working solution to all wells. Plates were centrifuged at 1000 rpm for 1 min and incubated for 1 h at room temperature, then read using CLARIOstar Plus (BMG LABTECH Inc., Cary, NC, USA) Lance CAMP protocol.

CEM-CCRF cells = test: 96 wells transwell migration assay in CEM human lymphoblast cells; type: cell-based
Excerpt: Thus, to confirm CXCR4 functional activity, we evaluated UCUF-728 in a 96 wells transwell migration assay in CEM human lymphoblast cells. […] (Supplemental Figure S7). From the analog structure–activity relationship studies and characterization studies in the chemotaxis assay, cAMP signaling and CXCR4 binding assay, we identified UCUF-728 as a potent and functionally selective CXCR4 receptor modulator.
CEM-CCRF (ATCC CCL-119) were suspended in RPMI 1640 (Corning; 10-040-CV) at 5.0 × 10^5 cells/mL and allowed to incubate in cell culture incubator at 37 °C with 5% CO2 for one hour. […] Following 1 h cell incubation and compound dispensing, 150 μL of RPMI 1640 supplemented with 2% Fetal Bovine Serum was added to each well of the compound receiver tray, and 50 μL of 5 × 10^5 cells/mL cell suspension in RPMI were added to each well of the top filter plate. Plates were reassembled and placed in a cell culture incubator at 37 °C with 5% CO2 for three hours. After incubation, Multi-Screen plate was disassembled and 100 μL of solution was collected from compound receiver tray and transferred to 96 well luminescent plate and an equal volume of ATPLite 1step luminescence reagent (Perkin Elmer, Waltham, MA, USA) was added to each well. Luminescence was measured using the CLARIOstar Plus (BMG LABTECH Inc., Cary, NC, USA).

[1] = test system: diabetic wounds in Db mice; test: full-thickness excisional 8 mm wound healing in diabetic Db mice; type: in vivo
Protocol: We examined the ability of our lead compound to improve diabetic wound healing in vivo. Full-thickness excisional 8 mm wounds were created in Db mice and were immediately treated with 10 µM UCUF-728 or PBS control. We monitored wound healing over the course of 22 days. Initial wound size was calculated immediately after wounding, and wound closure was assessed over time as the percentage of initial wound area. Figure 4A depicts the wound healing effect of UCUF-728 application on the excision wound model for sequential days following injury. […] The effect of UCUF-728 treatment on angiogenesis was assessed using immunohistochemistry for the endothelial marker CD31. Representative photos of immunoperoxidase staining for CD31 at 7 days in diabetic wounds treated with PBS or UCUF-728 are shown in Figure 4C.
All animal experiments were approved by the Institutional Animal Care and Use Committee at the University of Colorado Denver—Anschutz Medical Campus, and experimental protocols followed the guidelines described in the NIH Guide for the Care and Use of Laboratory Animals. In these experiments, we used 10-week-old, female, genetically diabetic C57BKS.Cg-m/Leprdb/J (Db) mice and heterozygous, non-diabetic (non-Db), age-matched female controls from the Jackson Laboratory (Bar Harbor, ME, USA). Mice were anesthetized with inhaled isoflurane. Each mouse was shaved and depilated before wounding. The dorsal skin was swabbed with alcohol and Betadine (Purdue Pharma, Stamford, CT, USA). Each mouse received a single, full-thickness dorsal wound (including panniculus carnosum) with an 8-mm punch biopsy (Miltex Inc., York, PA, USA). After wounding, a Hamilton syringe was used to deliver 50 μL of either 10 uM CAG1 or PBS, as a control. Ten […] were injected intradermally at 12, 3, 6 and 9 o’clock and at the wound base. All wounds were dressed with Tegaderm (3M, St. Paul, MN, USA), which was subsequently removed on postoperative day 2. Postoperatively, the mice received a subcutaneous injection of an analgesic, Banamine (Schering-Plough Animal Health Corp., Union, NJ, USA). A full-thickness skin sample, centered on the wound, was harvested 3 and 7 days after surgery (n = 5 per timepoint).

Chain of CXCR4 receptor (P61073 whole entry): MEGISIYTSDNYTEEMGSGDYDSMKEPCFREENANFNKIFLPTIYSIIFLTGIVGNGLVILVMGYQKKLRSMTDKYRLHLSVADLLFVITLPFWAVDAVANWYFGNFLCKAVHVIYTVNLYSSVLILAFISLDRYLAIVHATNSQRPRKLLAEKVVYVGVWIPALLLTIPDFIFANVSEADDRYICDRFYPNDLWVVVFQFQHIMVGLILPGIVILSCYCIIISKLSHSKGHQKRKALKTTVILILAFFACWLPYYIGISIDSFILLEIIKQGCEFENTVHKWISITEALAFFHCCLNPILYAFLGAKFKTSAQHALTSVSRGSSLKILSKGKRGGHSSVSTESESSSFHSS

COc1ccc(OC)c(NS(=O)(=O)c2ccc(-c3cnc(C4CC4)o3)cc2)c1 [Compound 19]
inhibition of forskolin-induced adenylate cyclase (cAMP signaling) (CXCR4 receptor): did not inhibit forskolin-induced adenylate cyclase | induction of cell migration (CEM-CCRF cells; compound in lower channel, 3 h): induced migration with a similar EC50 and Emax as the B-arrestin recruitment activity | effect on SDF-1α-mediated migration response (CEM-CCRF cells; saturating concentrations of UCUF-728): potentiated | time of full closure ([1]; Db mice, 8 mm wound, 10 µM intradermal at wounding, PBS 22 days): 14 days | wound surface area ([1]; Db wounds, post-injury day 6, vs PBS): decrease in the wound surface area | reduction of wound closure time ([1]; diabetic mice, vs PBS): 36% | number of vessels (CD31 staining) ([1]; diabetic wounds, 7 days, vs PBS): significant increase in the number of vessels
